# Test results: US20090061022A1, “Pharmaceutical composition comprising arsenite for the treatment of malignancy” (priority 2004, published 2009)
# Several values for one entry are separate records, joined by “and”; a condition that tells them apart may be missing. Equal entries are not always repeated. Marks after values point to notes of the source that are not given here.
# Legend:
# ALL-SCID 4 = assay: Anticancer activity in human leukemia model ALL-SCID 4; settings: 100 mg/kg i.p., day 25
# From the text: Anticancer activity of the sodium meta-arsenite and arsenic trioxide against two human paediatric acute lymphoblastic leukemia (ALL) models in vivo, ALL-SCID 4 was investigated to compare.
# Male NOD/SCID mice (deficient in T and B lymphocytes, NK cells and functional macrophages) were transplanted s.c. on day 0 with fragments of ALL-SCID 4 cancers, which were obtained from mice used for routine passage of the cancers. Mice were randomized to the scheduled treatment groups.
# Sodium meta-arsenite was administered orally at 2, 4 and 6 mg/kg/day (⅓ MTD, ⅔ MTD and MTD) once every day from day 34-54 after transplantation. The vehicle control (5% glucose in water) was administered i.p. (10 ml/kg).
# Sodium meta-arsenite was dissolved in ready-to-use sterile infusion (5% (w/v) glucose in aqua injectabila). Arsenic trioxide was dissolved in 25 mM NaOH then dissolved in 5% glucose in aqua injectabila. The solutions were prepared freshly on the day of therapy for each administration.
# [1] = test system: panel of 9 human cancer cell lines; assay: Cytotoxic activity, whole panel of 9 human cancer cell lines (means, active/total); type: cell-based
# Description: Three kinds of stock solutions were prepared for in vitro cytotoxic activity test. The first solution is DMSO (dimethyl sulfoxide) mixed with sodium meta-arsenite. […] The third solution is DMSO mixed with arsenic acid sodium salt. Those three solutions were diluted with culture medium (RPMI 1640). The final concentrations of DMSO in those three solutions are less than 0.3 vol %.
# (§1) Nine kinds of human cancer cell lines out of six kinds of cancers were grown at 37° C. under a controlled atmosphere of 95% air and 5% CO2. The cells were grown on monolayer cultures of RPMI 1640 cell culture medium supplemented with 10% fetal calf serum.
# (§2) The grown cells were harvested from exponential phase cultures by trypsinization and counted. The counted cells were placed in a plate, which has ninety six wells. Each well on the plate is in a shape of a flat-bottomed microtitre. Density of the cells in a suspension was adjusted depending on the cell line. The suspension was prepared by diluting the grown cells with the culture medium (RPMI 1640). […] Then add 50 μl of culture medium (RPMI 1640) only to 6 wells, 50 μl/well, among the 96 wells of one plate. It is called controlled. One well is filled with culture medium plus 5-FU. And another 50 μl of culture medium plus one of the stock solutions were added to each of the left 89 wells to allow cells to resume exponential growth.
# The cytotoxic activity test was executed with three plates simultaneously to check reliability of the data obtained. The three plates contain the same samples of cancer cells. The three plates were then incubated for 3-7 days under the same controlled atmosphere and cell proliferation was assessed with a modified propodium iodide fluorescence assay. After thawing of the plates, fluorescence was measured using a Millipore Cytofluor 2350-microplate reader (excitation 530 nm emission 620 nm) in order to quantify the total cell number. The assay included untreated and positive controls containing 5-FU.
# Growth inhibition is defined as (numbers of cancer cell alive) treated (T)/(number of cells) control (C)×100% (T/C %).
# [2] = test system: panel of 12 human cancer cell lines; assay: Cytotoxic activity, whole panel of 12 human cancer cell lines, modified propidium iodide assay; settings: panel of 12 human cancer cell lines, 4 days
# Description: as §1
# as §2, with “1640). Concentration of the cells were varied from 5×10^4 to 1×10^5 viable cells/ml. 100 μl of the suspension was placed in each well of the plate.” for “1640).”
# (§3) In a further study, the cytotoxic activity profile of sodium meta-arsenite and arsenic acid sodium salt was investigated in different panels containing twelve (12) human cancer cell lines from eight (8) kinds of human cancers. The cancer cell samples were prepared as described in 1-1-B. Propidium iodide fluorescence assay method for this test was modified as the follows.
# GXF 251L (gastric) = settings: resistant
# Description: as §1
# as §2, with “1640). Concentration of the cells were varied from 5×10^4 to 1×10^5 viable cells/ml. 100 μl of the suspension was placed in each well of the plate.” for “1640).”
# as §3
# LXFA 629L = LXFA 629L non-small cell lung; resistant
# Description: as §1
# as §2, with “1640). Concentration of the cells were varied from 5×10^4 to 1×10^5 viable cells/ml. 100 μl of the suspension was placed in each well of the plate.” for “1640).”
# as §3
# LXFE 66NL = LXFE 66NL non-small cell lung; resistant
# Description: as §1
# as §2, with “1640). Concentration of the cells were varied from 5×10^4 to 1×10^5 viable cells/ml. 100 μl of the suspension was placed in each well of the plate.” for “1640).”
# as §3
# RXF393NL (renal) = settings: resistant
# Description: as §1
# as §2, with “1640). Concentration of the cells were varied from 5×10^4 to 1×10^5 viable cells/ml. 100 μl of the suspension was placed in each well of the plate.” for “1640).”
# as §3
# RXF 944LX [3] = assay: Dose finding study in human renal cancer model RXF 944LX in nude mice (i.p. days 0, 7, 14)
# From the text: In a dose finding study, the potential anticancer activity of sodium meta-arsenite and arsenic acid sodium salt versus arsenic trioxide was examined in the human renal cancer model, RXF 944LX.
# (§4) Cancer fragments (1-2 mm in diameter), obtained from xenografts in serial passage in nude mice, were implanted subcutaneously (S.C.) in a flank of male NRMI nude mice (one fragment per mouse). Mice with appropriate cancer volumes (5-7 mm in diameter) were randomly distributed to treatment and control groups (4 mice/group). The start of treatment was day 0. Cancer volume and body weights were measured at least twice per week.
# 1) Sodium meta-arsenite (3, 10, 30 mg/kg/day), 2) Arsenic acid sodium salt (3, 10, 30 mg/kg/day) and 3) Arsenic trioxide (3, 10, 30 mg/kg/day) were administered intraperitoneally (i.p.) once daily on days 0, 7 and 14.
# Stock solution of sodium meta-arsenite and arsenic acid sodium salt (3 mg/ml) were prepared in 5% (w/v) dextrose solution, respectively, to minimize acute arsenic toxicity. For arsenic trioxide, 9 mg of arsenic trioxide was dissolved in 1M NaOH (75 μl) followed by mixing with sterile aqua injectabilia (2175 μl) and sterile 20% (w/v) dextrose in water (500 μl). Further dilution to the desired concentration was done with a 5% dextrose solution to give a final concentration of 3 mg/ml.
# (§5) The cancer volume of each animal was determined by two-dimensional measurement using calipers. The volume was calculated according to the formula: (a×b^2)×0.5; wherein a and b represent two perpendicular diameters in which a (length) is the larger diameter and b (width) the smaller diameter.
# (§6) Relative cancer volumes (RCV) were calculated for each individual cancer by dividing the cancer volume on day X by the cancer volume on day 0 multiplied by 100%. The cancer volume of a treatment group was expressed as the median RCV of all mice of the group. Median RCV values were used for drawing growth curves and treatment evaluation. Optimal cancer growth inhibition at a particular day within the treatment period was calculated from the median RCV values of the treated (T) versus the controlled (C) group multiplied by 100%. A T/C value<50% was considered as anti-cancer activity.
# RXF 944LX [4] = assay: Anticancer activity in RXF 944LX cancer bearing nude mice, intermittent and daily schedules; settings: for MTD: i.p., RXF 944LX
# Description: as §4, §5, §6
# In the experiment with renal cancer RXF 944LX, the anticancer activity of the compounds was explored using two administration schedules; 1) intermittent schedule of 4 days×3, and 2) a daily schedule for 2 weeks (days 0-4, 7-11).
# The dose levels chosen for sodium meta-arsenite and arsenic acid sodium salt in these schedules were based on the experience in the 1st experiment. Additional small dose finding studies were executed.
# [5] = mean over human cancer cell lines tested (9 line panel)
# [6] = 32 mg/kg i.p., days 0-4, 7, 14-18
molecule,measurement,setting,value
"O=P1(N(CCCl)CCCl)NCCCO1 (stereo not drawn) [Cyclophosphamide, reference compound]",BW loss % (day),ALL-SCID 4,+4 (34) %
same,Drug-related deaths,ALL-SCID 4,0/8
same,T/C %,ALL-SCID 4,4* %
arsenic acid sodium salt,Assessment from comparison of the IC50 values,[1]; 9 cell line panel,inactive
same,IC50,[1]; [5],99 µM
same,IC90,[1]; [5],248 µM
same,Mean IC50,[1]; [5],30.8 mg/L
same,Mean IC90,[1]; [5],77.5 mg/L
same,Mean IC70,"[1]; mean over human cancer cell lines tested (9 line panel), sodium salt",44.7 μg/ml and 143 μM
same,Mean IC50,[2],25.5 mg/L
same,Mean IC90,[2],76.6 mg/L
same,Mean IC70,[2]; sodium salt,40.1 μg/ml and 129 μM
same,IC50,[2]; read-out: Mean IC50,82 µM
same,IC90,[2]; read-out: Mean IC90,246 µM
same,IC70,GXF 251L (gastric),> 100 mg/L
same,IC70,LXFA 629L,> 100 mg/L
same,IC70,LXFE 66NL,> 100 mg/L
same,IC70,RXF393NL (renal),> 100 mg/L
same,BW loss % (day),"RXF 944LX [3]; 3 mg/kg i.p., days 0, 7, 14",+15 (21) %
same,Drug-related deaths,"RXF 944LX [3]; 3 mg/kg i.p., days 0, 7, 14",0/4
same,Rating,"RXF 944LX [3]; 3 mg/kg i.p., days 0, 7, 14",− (−T/C ≧ 50%)
same,SGD (specific growth delay),"RXF 944LX [3]; 3 mg/kg i.p., days 0, 7, 14",−0.5
same,T/C %,"RXF 944LX [3]; 3 mg/kg i.p., days 0, 7, 14",90%
same,BW loss % (day),"RXF 944LX [3]; 10 mg/kg i.p., days 0, 7, 14",+10 (21) %
same,Drug-related deaths,"RXF 944LX [3]; 10 mg/kg i.p., days 0, 7, 14",0/4
same,Rating,"RXF 944LX [3]; 10 mg/kg i.p., days 0, 7, 14",− (−T/C ≧ 50%)
same,SGD (specific growth delay),"RXF 944LX [3]; 10 mg/kg i.p., days 0, 7, 14",−0.2
same,T/C %,"RXF 944LX [3]; 10 mg/kg i.p., days 0, 7, 14",74%
same,BW loss % (day),"RXF 944LX [3]; 30 mg/kg i.p., days 0, 7, 14",+14 (21) %
same,Drug-related deaths,"RXF 944LX [3]; 30 mg/kg i.p., days 0, 7, 14",0/4
same,Rating,"RXF 944LX [3]; 30 mg/kg i.p., days 0, 7, 14",− (−T/C ≧ 50%)
same,SGD (specific growth delay),"RXF 944LX [3]; 30 mg/kg i.p., days 0, 7, 14",0.1
same,T/C %,"RXF 944LX [3]; 30 mg/kg i.p., days 0, 7, 14",88%
same,T/C values of the 3 treatment groups,"RXF 944LX [3]; 3, 10, 30 mg/kg/day i.p., days 0, 7, 14",greater than 74%
same,Maximum Tolerated Dose (MTD),"RXF 944LX [3]; i.p. once daily on days 0, 7 and 14, RXF 944LX bearing nude mice",greater than 30 mg/kg/day
same,BW loss % (day),"RXF 944LX [4]; 16 mg/kg i.p., days 0-4, 7-11",−8 (14) %
same,Drug-related deaths,"RXF 944LX [4]; 16 mg/kg i.p., days 0-4, 7-11",2/6
same,SGD (specific growth delay),"RXF 944LX [4]; 16 mg/kg i.p., days 0-4, 7-11",0
same,T/C %,"RXF 944LX [4]; 16 mg/kg i.p., days 0-4, 7-11",76%
same,BW loss % (day),"RXF 944LX [4]; 30 mg/kg i.p., days 0, 4, 8",+25 (14) %
same,Drug-related deaths,"RXF 944LX [4]; 30 mg/kg i.p., days 0, 4, 8",1/6
same,SGD (specific growth delay),"RXF 944LX [4]; 30 mg/kg i.p., days 0, 4, 8",−0.2
same,T/C %,"RXF 944LX [4]; 30 mg/kg i.p., days 0, 4, 8",100%
same,BW loss % (day),RXF 944LX [4]; [6],−10 (14) %
same,Drug-related deaths,RXF 944LX [4]; [6],3/6
same,BW loss % (day),"RXF 944LX [4]; 45 mg/kg i.p., days 0, 4, 8",+22 (14) %
same,Drug-related deaths,"RXF 944LX [4]; 45 mg/kg i.p., days 0, 4, 8",2/6
same,SGD (specific growth delay),"RXF 944LX [4]; 45 mg/kg i.p., days 0, 4, 8",−0.3
same,T/C %,"RXF 944LX [4]; 45 mg/kg i.p., days 0, 4, 8",100%
same,MTD,"RXF 944LX [4]; daily schedule (days 0-4, 7-11)",16 mg/kg/day
same,MTD,RXF 944LX [4]; intermittent schedule (4 days×3),45 mg/kg/day
